Results as given in patent US8591908B2, “Immunogen for preparation of therapeutic vaccines or drugs for treatment of hepatitis B and the producing method and use thereof” (Institute of Immunology, PLA, priority 2002, dated 2013).
“And” between values parts separate entries of the source, which are not always exact repeats. Equal entries are not always repeated. Ends that are not written are not given here. * marks the point of attachment. Palmitoyl = CCCCCCCCCCCCCCCC(=O)*

Key:
enzyme-labeled antibody = assay: Potency/specific activity of stock solution or semifinished product, enzyme-linked plate; format: binding
Source text: Chromatography column AP5 20/275 POROS 50 R1 was used in the batch production. After peptide-resin was cleaved and preliminarily purified, the collected εPA44 sample was divided into 7 parts for high purification, and the effects and reproducibility for batch purification of εPA44 stock solution were furthered studied. […] The collected elution peak fractions of εPA44 were pooled and mixed homogenously, aliquots were removed for analysis. If the sample met the set standards, it was used as the stock solution and was stored at −20° C. until use. The output, yield and specific activity of the product were calculated based on the measured data.
The semifinished product to be tested was diluted to a concentration within the measurable range of the potency determination. An enzyme-linked plate( ? ) was coated, blocked, bound by enzyme-labeled antibody, and developed. The absorbance at 450 nm (A450 nm) was detected by an enzyme-labeling device, and compared to the reference of the product. The potency of εPA44 in the extract of the sample was determined, and the specific activity of the semifinished product ( ? ) was calculated.
The reference of the product was 10-fold diluted with 50% ethanol, and then was two-fold serially diluted. 100 μl dilutions were separately added to the wells on the 96-well enzyme-linket immunosorbent assay plate, each well was repeated in triplicate. Coating was carried out in refrigerator at 4° C. for 20-24 hours. The stock solution of εPA44 was diluted and coated similarly to the reference. 100 μl of 50% ethanol was added to negative control wells. After the coating was completed, 200 μl 1% calf serum was added to each well, and blocked in refrigerator at 4° C. for 2 hours. The enzyme-linket immunosorbent assay plate was dried in air, 80 μl enzyme-labeled antibody was added to each well and incubated at 37° C. for 40 minutes. The plate was washed with wash solution for 4 times and dried in air, then 50 μl of substrate solution A and 50 μl of substrate solution B were added to each well and developed at 37° C. for 15 minutes under protection from light. Then 50 μl of stop solution was added to each well. A450 nm values were detected on 550 type enzyme-linket immunosorbent assay detector. The median dilution times of the reference and the samples were calculated by program or linear regression method based on the median effect value of the reference of εPA44 (median maximum absorbance), and the potency of the test sample and the specific activity of the product were calculated according to the following formulas.

[1] = Isoelectric point, ampholyte pH gradient isoelectric focusing; format: physicochemical; conditions: 8N urea, TritonX-114
Protocol: Supported ampholyte pH gradient isoelectric focusing was employed. Pretreatment: 8N urea and 2% TritonX-114. Urea at the corresponding concentration and 0.5% TritonX-114 were also added to polyacrylamide gel. Conventional Coomassie brilliant blue was used for dyeing.

## K(Palmitoyl)SSQYIKANSKFIGITEAAAFLPSDFFPSVGGGDPRVRGLYFPA-OH [SEQ ID NO:1, CH3(CH2)14COKSSQYIKANSKFIGITEAAAFLPSDFFPSVGGGDPRVRGLYFPA]
enzyme-labeled antibody; semifinished product
  Specific activity: 13985.31 U/mg
  potency of each vial: 4085.53 U
enzyme-labeled antibody; stock solution after reversed phase chromatography, batches 1-3 and x ± Sx, listed as εPA44
  Specific activity: 10265.08 U/mg and 11689.76 ± 1503.57 U/mg and 13261.42 U/mg and 11542.77 U/mg
[1]
  isoelectric point: 7.2 pH
